Reference: patent publication US5521159A, “Partially modified and retro-inverted tetrapeptides analogues of C-reactive protein fragments” (Italfarmaco S.p.A., priority 1992, dated 1996)

Assays:
[1] = test system: murine peritoneal macrophages; test: Stimulation of IL-1 production by murine peritoneal macrophages (ELISA); format: cell-based, BALB/C mice; conditions: 96 hours; for IL-1 production, Stimulation index: with respect to control; for IL-1 production, U/ml: control 15
Excerpt: Stimulation of IL-1 production by murine peritoneal macrophages
Murine peritoneal macrophages were obtained by inoculation of a solution of hydrolized starch (BDH Chemicals, Poole, Dorset, UK) into the peritoneal cavity of BALB/C. mice, three days before sacrificing the animals. The peritoneal cells were then collected by washing the peritoneal cavity with a solution of RPMI 1640 containing 10% of FCS, and resuspended in the same solution at a concetration of 10^6 cells/ml in 96-well plates. The incubation was performed for 96 hours at 37° C. in the presence of the compounds in question. At the end of the treatment the supernatants were collected and used for dosing cytokine by means of a suitable ELISA commerical kit (Genzyme, Boston, Mass., USA).

murine peritoneal cells = test: Stimulation of the nitric oxide by murine peritoneal cells (chemiluminescence); format: cell-based, BALB/C mice; conditions: with lipopolysaccharide 30 μg/ml, 96 hours; for nitric oxide, Stimulation index: with respect to control; for nitric oxide content: control 20
Description: Stimulation of the nitric oxide by murine peritoneal cells
The peritoneal cells were obtained as described in the previous test, and incubated for 96 hours at 37° C. in the presence of the compounds in question and of lipopolysaccharide at a concentration of 30 μg/ml. At the end of the treatment the supernatants were collected and the nitric oxide content was determined by the chemiluminescence test described by Palmer R. M. J. et al, Nature, 327, 524, 1987.

[2] = test system: BALB/C mice inoculated with LPS; test: In vivo protection against septic shock (LPS-inoculated mice); conditions: LPS 50 mg/kg intraperitoneally, checked for 8 days
Description: Evaluation of the in vivo protection against septic shock
BALB/C mice (6 mice/group) weighting between 20 and 25 g, were intraperitoneally inoculated with 50 mg/kg of LPS (lipopolysaccharide-Sigma). The groups, except for the control, were inoculated with increasing doses of one of the compounds of the invention dissolved in physiologic solution having a final volume of 0.5 ml, at time 0 (i.e. together with LPS) or 30 minutes after the LPS inoculation. The mice were checked for 8 days to determined the survival percentage. Compound of Example 1 yields a survival percentage of about 65% at doses of 6.2 ug/mouse and 0.62 ug/mouse, and its isomer B yields a survival percentage of about 80% at a dose of 6.25 ug/mouse and of 75% at a dose of 62.5 ug/mouse.

murine splenocytes = test: Stimulation of in vitro IFN-.tau. production by murine splenocytes (ELISA); format: cell-based, BALB/C mice; conditions: for IFN-.tau. production, Stimulation index / IFN-.tau. production, U/ml: 24 hours; for IFN-.tau. production, Stimulation index: with respect to untreated cells; for IFN-.tau. production, U/ml: control 31 (Ex.1, Ex.2), 41 (Ex.3)
Description: Stimulation of in vitro IFN-.tau. production by murine splenocytes
The splenic cells were obtained from spleen of BALB/C mice as single cells suspension. The splenocytes thus obtained were resuspended in RPMI 1640 culture medium (Flow Lab., Hertz, UK) containing 5% of fetal calf serum (FCS) (HyClone, ST, Utah, USA) at a final concentrazione of 10^7 cells/ml, and incubated in 96-well plates for 24 hours at 37° C. in the presence of the tested compounds at the indicated concentration. At the end of the incubation the supernatant was collected, filtered by […] filter and freezed to -80° C. until the time of the test carried out by ELISA commercial kit (Genzyme, Boston, Mass., USA).

Leishmania major = test: Effect on the leishmanicidal activity of murine peritoneal macrophage (3H-thymidine incorporation); format: cell-based; conditions: for 3H-thymidine incorporation by living parasites, cpm (counts per minute): 24 hours pre-incubation of macrophages, control 18,273; for % reduciton of infection: versus control
Description: Effect on the leishmanicidal activity of murine peritoneal macrophage
The peritoneal cells collected as described above were seeded in 96-well flat bottom plates (Nunc, Roskiled, DK) at a concentration of 10^5 /100 μl; and incubated per 24 hours at 37° C. At the end of the treatment, the cells not adherent to the well were separated and discharged, whereas the adherent cells were washed three time with culture medium and incubated for 24 hours with the compounds in question, then the cells were infected through a 24 hours incubation with promastigotes of Leishmania major (L. major, PVL49 strain supplied by Dr. Neal R. A., London School of Hygiene and Tropical Medicine, London, UK). At the end of the infection treatment each well was added with 100 μl of a 0.01% solution od sodium dodecylsulphate in RPMI 1640, and the plates were incubated for 30 minutes at 37° C. The Schneider's culture medium (Schneider Drosophila medium, Gibco Lab., Grand island, N.Y., USA) with 30% of FCS was added. Each well was added with 1 μCi of ^3 H-thymidine, and a 72 hours incubation was carried out at 37° C. The incorporation of radioactivity by the living parasites inside the peritoneal cells, which is correlated to the infection degree and consequently to the leishmanicidal activity of the cells, was measured by collecting the cells by means of a cell-harvester and measuring the radioactivity with liquid scintillation β-counter.

| Compound | IL-1 production, Stimulation index ([1]; 0.01 μg/ml) | IL-1 production, U/ml ([1]; 0.01 μg/ml) [U/ml] | IL-1 production, Stimulation index ([1]; 0.1 μg/ml) | IL-1 production, U/ml ([1]; 0.1 μg/ml) [U/ml] | IL-1 production, Stimulation index ([1]; 1.0 μg/ml) | IL-1 production, U/ml ([1]; 1.0 μg/ml) [U/ml] | IL-1 production, Stimulation index ([1]; 10.0 μg/ml) | IL-1 production, U/ml ([1]; 10.0 μg/ml) [U/ml] | nitric oxide, Stimulation index (murine peritoneal cells; 0.01 μg/ml) | nitric oxide content (murine peritoneal cells; 0.01 μg/ml) [nmol/mL] | nitric oxide, Stimulation index (murine peritoneal cells; 0.1 μg/ml) | nitric oxide content (murine peritoneal cells; 0.1 μg/ml) [nmol/mL] | nitric oxide, Stimulation index (murine peritoneal cells; 1.0 μg/ml) | nitric oxide content (murine peritoneal cells; 1.0 μg/ml) [nmol/mL] | nitric oxide, Stimulation index (murine peritoneal cells; 10.0 μg/ml) | nitric oxide content (murine peritoneal cells; 10.0 μg/ml) [nmol/mL] | IFN-.tau. production, Stimulation index (murine splenocytes; 0.1 μg/ml) | IFN-.tau. production, U/ml (murine splenocytes; 0.1 μg/ml) [U/ml] | IFN-.tau. production, Stimulation index (murine splenocytes; 1.0 μg/ml) | IFN-.tau. production, U/ml (murine splenocytes; 1.0 μg/ml) [U/ml] | other results |
| --- | --- | --- | --- | --- | --- | --- | --- | --- | --- | --- | --- | --- | --- | --- | --- | --- | --- | --- | --- | --- | --- |
| N=C(N)NCCC[C@H](NC(=O)[C@@H]1CCCN1C(=O)C(CCCCN)C(=O)NCN)C(=O)O (single isomer, unassigned) [Ex.1] | 0.4 | 6 | 0.1 | 2 | 0.1 | 2 | 0.1 | 2 | 2.2 | 43 | 3.0 | 59 | 3.9 | 77 | 2.9 | 57 | 1.1 | 33 | 1.9 | 60 | survival percentage ([2]; 0.62 ug/mouse): about 65%; survival percentage ([2]; 6.2 ug/mouse): about 65%; IFN-.tau. production, Stimulation index (murine splenocytes; 1.0 μg/ml, listed as example 1): doubled; IFN-.tau. production, Stimulation index (murine splenocytes; 10.0 μg/ml): 1.6; IFN-.tau. production, U/ml (murine splenocytes; 10.0 μg/ml): 49 U/ml; stimulation of IFN-.tau. production, result in words (murine splenocytes; 0.1 to 10.0 μg/ml): the most powerful one of the present class; 3H-thymidine incorporation by living parasites, cpm (counts per minute) (Leishmania major; 0.1 μg/ml): 5,096 cpm; % reduciton of infection (Leishmania major; 0.1 μg/ml): over 70%; % reduciton of infection (Leishmania major; 0.1 μg/ml, listed as Es. 1): 72%; 3H-thymidine incorporation by living parasites, cpm (counts per minute) (Leishmania major; 1.0 μg/ml): 3,783 cpm; % reduciton of infection (Leishmania major; 1.0 μg/ml): 79%; 3H-thymidine incorporation by living parasites, cpm (counts per minute) (Leishmania major; 10.0 μg/ml): 4,292 cpm; % reduciton of infection (Leishmania major; 10.0 μg/ml): 77%; reduction of the infection degree, result in words (Leishmania major; 0.1 to 10.0 μg/ml): the utmost effective |
| H-gThr-(R,S)mLys-Pro-Gln-OH.AcOH [Ex.3] | 10.0 | 150 | 10.7 | 160 | 10.3 | 155 | 9.3 | 140 | 2.5 | 50 | 3.0 | 60 | 3.3 | 66 | 4.4 | 88 | 1.5 | 60 | 1.5 | 60 | IFN-.tau. production, Stimulation index (murine splenocytes; 10.0 μg/ml): 1.7; IFN-.tau. production, U/ml (murine splenocytes; 10.0 μg/ml): 68 U/ml; 3H-thymidine incorporation by living parasites, cpm (counts per minute) (Leishmania major; 0.1 μg/ml): 18,826 cpm; % reduciton of infection (Leishmania major; 0.1 μg/ml): -3%; 3H-thymidine incorporation by living parasites, cpm (counts per minute) (Leishmania major; 1.0 μg/ml): 8,377 cpm; % reduciton of infection (Leishmania major; 1.0 μg/ml): 54%; 3H-thymidine incorporation by living parasites, cpm (counts per minute) (Leishmania major; 10.0 μg/ml): 7,842 cpm; % reduciton of infection (Leishmania major; 10.0 μg/ml): 57% |
| H-gThr-R,S)mLys-Pro-LeU-OH.AcOH [Ex.2] | 6.0 | 90 | 4.0 | 60 | 3.1 | 47 | 3.3 | 50 | 4.3 | 85 | 3.1 | 61 | 3.3 | 66 | 4.0 | 79 | 1.8 | 57 | 1.7 | 52 | IFN-.tau. production, Stimulation index (murine splenocytes; 10.0 μg/ml): 1.9; IFN-.tau. production, U/ml (murine splenocytes; 10.0 μg/ml): 60 U/ml; 3H-thymidine incorporation by living parasites, cpm (counts per minute) (Leishmania major; 0.1 μg/ml): 17,568 cpm; % reduciton of infection (Leishmania major; 0.1 μg/ml): 4%; 3H-thymidine incorporation by living parasites, cpm (counts per minute) (Leishmania major; 1.0 μg/ml): 11,991 cpm; % reduciton of infection (Leishmania major; 1.0 μg/ml): 34%; 3H-thymidine incorporation by living parasites, cpm (counts per minute) (Leishmania major; 10.0 μg/ml): 10,582 cpm; % reduciton of infection (Leishmania major; 10.0 μg/ml): 42% |
| N=C(N)NCCC[C@H](NC(=O)[C@@H]1CCCN1C(=O)C(CCCCN)C(=O)NCN)C(=O)O (single isomer, unassigned) [isomer B] | – | – | – | – | – | – | – | – | – | – | – | – | – | – | – | – | – | – | – | – | survival percentage ([2]; 6.25 ug/mouse): about 80%; survival percentage ([2]; 62.5 ug/mouse): 75% |
